Values of other authors, collected in patent US20240398764A1, “METHODS OF TREATING DISEASES ASSOCIATED WITH SENESCENT CELL ACCUMULATION” (University of Florida Research Foundation, Incorporated, priority 2021, published 2024).

What was measured:
platelets [1] = conditions: literature statement; cited from earlier work
platelets [2] = conditions: vs ABT263; cited from earlier work
SnCs = conditions: vs ABT263; cited from earlier work

Structure (SMILES)	Platelet apoptosis / thrombocytopenia (platelets [1])	Toxicity to platelets compared with ABT263 (platelets [2])	Potency against SnCs compared with ABT263 (SnCs)
CC1(C)CCC(CN2CCN(c3ccc(C(=O)NS(=O)(=O)c4ccc(NCC5CCOCC5)c([N+](=O)[O-])c4)c(Oc4cnc5[nH]ccc5c4)c3)CC2)=C(c2ccc(Cl)cc2)C1 [ABT199]	does not induce thrombocytopenia	–	–
CC1(C)CCC(c2ccc(Cl)cc2)=C(CN2CCN(c3ccc(C(=O)NS(=O)(=O)c4ccc(N[C@H](CCN5CCOCC5)CSc5ccccc5)c(S(=O)(=O)C(F)(F)F)c4)cc3)CC2)C1 [ABT263]	induces platelet apoptosis and results in severe thrombocytopenia	–	–
CC1(C)CCC(c2ccc(Cl)cc2)=C(CN2CCN(c3ccc(C(=O)NS(=O)(=O)c4ccc(N[C@H](CCN5CCN(C(=O)CCCn6cc(COCCOCCNc7cccc8c7C(=O)N(C7CCC(=O)NC7=O)C8=O)nn6)CC5)CSc5ccccc5)c(S(=O)(=O)C(F)(F)F)c4)cc3)CC2)C1 (stereo partly shown) [PZ15227]	–	less toxic to platelets	equally or slightly more potent against SnCs
